Data taken from DBAASP.
In brackets after ≈: the same amount, converted by molar mass.

Tests used:
Assay in all cases: ≥ marks a high value that may be exact or a test limit, other limits are often not marked, values filed in µg/mL are converted to µM
Escherichia coli UB1005 = system: Escherichia coli UB1005
[1] = system: Escherichia coli ATCC 25922
[2] = system: Staphylococcus aureus ATCC 43300
Staphylococcus aureus = system: Staphylococcus aureus
[3] = system: Staphylococcus aureus ATCC 29213
[4] = system: Salmonella enterica subsp. enterica serovar Pullorum C79-13
[5] = system: Salmonella enterica subsp. enterica serovar Typhimurium ATCC 14028
[6] = system: Salmonella enterica subsp. enterica serovar Choleraesuis CVCC 503
[7] = system: Salmonella enterica subsp. enterica serovar Typhimurium C77-31
Streptococcus agalactiae = system: Streptococcus agalactiae
[8] = system: Staphylococcus epidermidis ATCC 12228
[9] = system: Enterococcus faecalis ATCC 29212
[10] = system: Salmonella enterica subsp. enterica serovar Typhimurium ATCC 14028s
[11] = system: Pseudomonas aeruginosa K799
[12] = system: Staphylococcus aureus ATCC 25923
[13] = system: Staphylococcus epidermidis C621
[14] = system: Bacillus subtilis ATCC 6633
[15] = system: Pseudomonas aeruginosa ATCC BAA-427
[16] = system: Lactococcus lactis AS1.1690
[17] = system: Enterococcus faecium CGMCC 1.2334
Escherichia coli AS1.349 = system: Escherichia coli AS1.349
[18] = system: Staphylococcus aureus AS1.72
[19] = system: Pseudomonas aeruginosa CGMCC 1.860
Bacillus cereus AS1.126 = system: Bacillus cereus AS1.126
[20] = system: Enterococcus faecalis CGMCC 1.595
Escherichia coli B = system: Escherichia coli B
Bacillus subtilis 168 = system: Bacillus subtilis 168
Pseudomonas aeruginosa = system: Pseudomonas aeruginosa

MIC (Escherichia coli UB1005) [µM] | MIC [1] [µM] | MIC [2] [µM] | MIC (Staphylococcus aureus) [µM] | MIC [3] [µM] | MIC [4] [µM] | MIC [5] [µM] | MIC [7] [µM] | MIC (Streptococcus agalactiae) [µM] | MIC [8] [µM] | MIC [9] [µM] | MIC [12] [µM] | Structure (SMILES) | MIC [6] [µM] | further results
4 (≈ 8.6 µg/mL) | 8 (≈ 17.2 µg/mL) | > 64 | > 64 | > 64 | ≥ 64 | 8 (≈ 17.2 µg/mL) | 8 (≈ 17.2 µg/mL) | ≥ 64 | > 64 | > 64 | – | CC[C@H](C)[C@H](N)C(=O)N[C@@H](CS)C(=O)N[C@@H](CCCN=C(N)N)C(=O)N[C@@H](CCCCN)C(=O)N1CCC[C@H]1C(=O)N[C@H](C(=O)N[C@H](C(=O)N[C@@H](CS)C(=O)N[C@@H](CCCN=C(N)N)C(=O)N[C@@H](CCCCN)C(=O)N1CCC[C@H]1C(=O)N[C@H](C(=O)N[C@H](C(=O)N[C@@H](CS)C(=O)N[C@@H](CCCN=C(N)N)C(=O)N[C@@H](CCCCN)C(=O)N1CCC[C@H]1C(=O)N[C@H](C(N)=O)[C@@H](C)CC)[C@@H](C)CC)[C@@H](C)CC)[C@@H](C)CC)[C@@H](C)CC [ICRKPIICRKPIICRKPI] | 16 (≈ 34.4 µg/mL) | –
2.62 (≈ 3.99 µg/mL) | – | – | – | – | – | – | – | – | – | > 21 | > 21 | CC[C@H](C)[C@@H]1NC(=O)[C@H](CCCN=C(N)N)NC(=O)[C@H](C(C)C)NC(=O)[C@H](CCCN=C(N)N)NC(=O)[C@@H]2CCCN2C(=O)[C@@H](NC(=O)[C@H](CC(C)C)NC(=O)[C@@H](N)CCCN=C(N)N)CSSC[C@@H](C(=O)N[C@@H](CCCN=C(N)N)C(N)=O)NC(=O)[C@H](C(C)C)NC(=O)[C@H](CCCN=C(N)N)NC1=O [RLCPRVRIRVCR] | – | MIC [10]: 21 µM (≈ 31.9 µg/mL); MIC [11]: 10.5 µM (≈ 16 µg/mL); MIC [13]: 10.5 µM (≈ 16 µg/mL)
– | 10 (≈ 17.4 µg/mL) | – | – | – | – | – | – | – | – | – | 8 (≈ 13.9 µg/mL) | CC(C)C[C@H](NC(=O)[C@H](CC(=O)O)NC(=O)[C@H](CC(C)C)NC(=O)[C@H](CCCCN)NC(=O)[C@H](CC(C)C)NC(=O)[C@H](CC(=O)O)NC(=O)[C@H](CC(C)C)NC(=O)[C@H](CCCCN)NC(=O)[C@H](CC(C)C)NC(=O)[C@H](CC(=O)O)NC(=O)[C@H](CC(C)C)NC(=O)[C@H](CCCCN)NC(=O)[C@H](CCCN=C(N)N)NC(=O)[C@@H](N)CCCN=C(N)N)C(=O)O [RRKLDLKLDLKLDL] | – | MIC [14]: 10 µM (≈ 17.4 µg/mL); MIC [15]: 10 µM (≈ 17.4 µg/mL)
– | 30 (≈ 47.5 µg/mL) | – | – | – | – | – | – | – | – | – | 25 (≈ 39.6 µg/mL) | CC(C)C[C@H](NC(=O)[C@H](CC(=O)O)NC(=O)[C@H](CC(C)C)NC(=O)[C@H](CCCCN)NC(=O)[C@H](CC(C)C)NC(=O)[C@H](CC(=O)O)NC(=O)[C@H](CC(C)C)NC(=O)[C@H](CCCCN)NC(=O)[C@H](CC(C)C)NC(=O)[C@H](CC(=O)O)NC(=O)[C@H](CC(C)C)NC(=O)[C@H](CCCCN)NC(=O)[C@@H](N)CCCN=C(N)N)C(=O)O [RKLDLKLDLKLDL] | – | MIC [14]: 30 µM (≈ 47.5 µg/mL); MIC [15]: ≥ 42 µM
8 (≈ 15.1 µg/mL) | 8 (≈ 15.1 µg/mL) | > 64 | > 64 | > 64 | ≥ 32 | 32 (≈ 60.5 µg/mL) | ≥ 32 | ≥ 64 | > 64 | > 64 | – | CC[C@H](C)[C@H](N)C(=O)N[C@H](C(=O)N[C@H](C(=O)N[C@@H](CS)C(=O)N[C@@H](CCCN=C(N)N)C(=O)N[C@@H](CCCCN)C(=O)N1CCC[C@H]1C(=O)N[C@H](C(=O)N[C@H](C(=O)N[C@@H](CS)C(=O)N[C@@H](CCCN=C(N)N)C(=O)N[C@@H](CCCCN)C(=O)N1CCC[C@H]1C(=O)N[C@H](C(=O)N[C@H](C(=O)N[C@H](C(N)=O)[C@@H](C)CC)[C@@H](C)CC)[C@@H](C)CC)[C@@H](C)CC)[C@@H](C)CC)[C@@H](C)CC)[C@@H](C)CC [IIICRKPIICRKPIII] | ≥ 32 | –
2 (≈ 6.63 µg/mL) | – | 4 (≈ 13.3 µg/mL) | 4 (≈ 13.3 µg/mL) | – | 4 (≈ 13.3 µg/mL) | 2 (≈ 6.63 µg/mL) | 2 (≈ 6.63 µg/mL) | 2 (≈ 6.63 µg/mL) | 4 (≈ 13.3 µg/mL) | 8 (≈ 26.5 µg/mL) | – | CC[C@H](C)[C@H](N)C(=O)N[C@H](C(=O)N[C@H](C(=O)N[C@@H](CS)C(=O)N[C@@H](CCCN=C(N)N)C(=O)N[C@@H](CCCCN)C(=O)N1CCC[C@H]1C(=O)N[C@H](C(=O)N[C@H](C(=O)N[C@@H](CS)C(=O)N[C@@H](CCCN=C(N)N)C(=O)N[C@@H](CCCCN)C(=O)N1CCC[C@H]1C(=O)N[C@H](C(=O)N[C@H](C(=O)N[C@@H](CS)C(=O)N[C@@H](CCCN=C(N)N)C(=O)N[C@@H](CCCCN)C(=O)N1CCC[C@H]1C(=O)N[C@H](C(=O)N[C@H](C(=O)N[C@@H](CS)C(=O)N[C@@H](CCCN=C(N)N)C(=O)N[C@@H](CCCCN)C(=O)N1CCC[C@H]1C(=O)N[C@H](C(=O)N[C@H](C(=O)N[C@H](C(N)=O)[C@@H](C)CC)[C@@H](C)CC)[C@@H](C)CC)[C@@H](C)CC)[C@@H](C)CC)[C@@H](C)CC)[C@@H](C)CC)[C@@H](C)CC)[C@@H](C)CC)[C@@H](C)CC)[C@@H](C)CC [IIICRKPIICRKPIICRKPIICRKPIII] | 2 (≈ 6.63 µg/mL) | –
– | – | – | – | – | – | – | – | – | – | – | – | CC(C)[C@H](N)C(=O)N[C@@H](Cc1c[nH]c2ccccc12)C(=O)N[C@@H](CCCN=C(N)N)C(=O)N[C@@H](CCCN=C(N)N)C(=O)N[C@@H](Cc1c[nH]c2ccccc12)C(=O)N[C@@H](CCCN=C(N)N)C(=O)N[C@@H](CCCN=C(N)N)C(=O)N[C@@H](Cc1ccccc1)C(=O)N[C@@H](Cc1c[nH]c2ccccc12)C(=O)O [VWRRWRRFW] | – | MIC [16]: 12.5 µM (≈ 18.1 µg/mL); MIC [17]: 12.5 µM (≈ 18.1 µg/mL); MIC (Escherichia coli AS1.349): 12.5 µM (≈ 18.1 µg/mL); MIC [18]: 12.5 µM (≈ 18.1 µg/mL); MIC [19]: 6.25 µM (≈ 9.05 µg/mL); MIC (Bacillus cereus AS1.126): 6.25 µM (≈ 9.05 µg/mL); MIC [20]: 12.5 µM (≈ 18.1 µg/mL)
– | – | – | 15.6 (≈ 28 µg/mL) | – | – | – | – | – | – | – | – | CC[C@H](C)[C@H](NC(=O)[C@H](CCCCN)NC(=O)[C@H](CCCCN)NC(=O)[C@H](CC(C)C)NC(=O)[C@@H](NC(=O)[C@H](CCCCN)NC(=O)[C@H](CCCCN)NC(=O)[C@H](Cc1c[nH]c2ccccc12)NC(=O)[C@H](CC(N)=O)NC(=O)[C@@H](N)C(C)C)C(C)C)C(=O)N[C@H](C(=O)N[C@@H](CCCCN)C(=O)N[C@H](C(=O)N[C@@H](C)C(=O)N[C@@H](CCCCN)C(N)=O)C(C)C)[C@@H](C)CC [VNWKKVLKKIIKVAK] | – | MIC (Escherichia coli B): 0.7 µM (≈ 1.26 µg/mL); MIC (Bacillus subtilis 168): 0.7 µM (≈ 1.26 µg/mL); MIC (Pseudomonas aeruginosa): 19 µM (≈ 34.1 µg/mL)
8 (≈ 22 µg/mL) | 8 (≈ 22 µg/mL) | > 64 | > 64 | > 64 | ≥ 64 | 8 (≈ 22 µg/mL) | 8 (≈ 22 µg/mL) | ≥ 64 | > 64 | > 64 | – | CC(C)[C@H](N)C(=O)N[C@@H](CS)C(=O)N[C@@H](CCCN=C(N)N)C(=O)N[C@@H](CCCCN)C(=O)N1CCC[C@H]1C(=O)N[C@H](C(=O)N[C@H](C(=O)N[C@@H](CS)C(=O)N[C@@H](CCCN=C(N)N)C(=O)N[C@@H](CCCCN)C(=O)N1CCC[C@H]1C(=O)N[C@H](C(=O)N[C@H](C(=O)N[C@@H](CS)C(=O)N[C@@H](CCCN=C(N)N)C(=O)N[C@@H](CCCCN)C(=O)N1CCC[C@H]1C(=O)N[C@H](C(=O)N[C@H](C(=O)N[C@@H](CS)C(=O)N[C@@H](CCCN=C(N)N)C(=O)N[C@@H](CCCCN)C(=O)N1CCC[C@H]1C(=O)N[C@H](C(N)=O)C(C)C)C(C)C)C(C)C)C(C)C)C(C)C)C(C)C)C(C)C [VCRKPVVCRKPVVCRKPVVCRKPV] | ≥ 64 | –
